Source: patent publication US10597378B2 (priority 2017, dated 2020)
Read-outs that look alike come from different tables or passages of the source.

Legend:
myc-tagged human MOR = molecular target: T1, myc-tagged human MOR (Homo sapiens, UniProt P35372); assay: cell-based
T1 construct: myc; host or cells: mouse pituitary AtT-20 cells

B6 mice [1] = assay: Tail-clip test (mechanical pain); format: in vivo, mouse; conditions: wildtype B6 mice
Description: Each B6 mouse was placed in an acrylic box (10 cm in diameter, 30 cm high) and allowed to acclimate for 5 min before testing, and then a clip was applied 1-cm from the base of the tail. The latency to bite or grasp the clip was measured during the clip was applied to the tail. […] Regardless of the response to 20 s, a cut off time was set to avoid tissue damage.

[2] = tested on: oxaliplatin-injected B6 mice; assay: Oxaliplatin-induced neuropathic pain, mechanical allodynia (Von Frey test); format: in vivo, mouse; conditions: PID 3, 30 min after treatment, equi-antinociceptive doses
Description: (§1) To induce neuropathic pain, each B6 mouse was intraperitoneally injected with either oxaliplatin (3.0 mg/kg), or vehicle (saline) after habituation to the test environment and baseline measurements of pain sensitivity. […] To induce cancer pain, each B6 mouse was injected with either 20 μL phosphate-buffered saline or cells (6×10^5 cells/20 μL phosphate-buffered saline) in the footpad of the right hind paw under isoflurane anesthesia on post-inoculation day 0. On post-inoculation day 19, i.e., the test day, mice were placed on a mesh floor with 5×5 mm holes, covered with a cup to prevent visual stimulation, and allowed to adapt for 1 h prior to testing. […] The tests were initiated with 0.5 g force. Briefly, whenever a withdrawal response occurred, the next weaker von Frey filament was applied. On the other hand, whenever no withdrawal response occurred, the next stronger filament was applied. Mechanical allodynia was defined as changes in the amount of pressure to induce the hind paw withdrawal.
This treatment paradigm was followed to produce neuropathic pain mice.

[3] = tested on: melanoma cell-implanted B6 mice; assay: Cancer-induced pain (B16-F1 melanoma), mechanical allodynia (Von Frey test); format: in vivo, mouse
Description: as §1, with “On post-inoculation day 19, i.e., the test day, mice were placed on a mesh floor with 5×5 mm holes, covered with a cup to prevent visual stimulation, and allowed to adapt for 1 h prior to testing.” left out
(§2) The cold allodynia was tested using acetone drop test and mechanical allodynia was measured using the Von Frey test to examine the antinociceptive effects of each drug treatment.

[4] = tested on: melanoma cell-implanted B6 mice; assay: Cancer-induced pain, cold allodynia (acetone drop test); format: in vivo, mouse; conditions: PID18, 30 min after treatment
Description: In cancer-induced pain model, cold allodynia in mice was assessed by using the acetone test. Absolute acetone (100%) in a volume of 5 μL was placed on the base of the paw in mice. […]
as §2

B6 mice [5] = assay: Respiratory function test; conditions: acute, equi-antinociceptive doses, 10-60 min
MOR [6] = molecular target: T2, MOR (Homo sapiens, UniProt P35372); assay: cell-based; parameters: host or cells: CHO-K1 (CHO-K1-MOR)
T2 sequence (P35372 whole entry, the tested form may be a part): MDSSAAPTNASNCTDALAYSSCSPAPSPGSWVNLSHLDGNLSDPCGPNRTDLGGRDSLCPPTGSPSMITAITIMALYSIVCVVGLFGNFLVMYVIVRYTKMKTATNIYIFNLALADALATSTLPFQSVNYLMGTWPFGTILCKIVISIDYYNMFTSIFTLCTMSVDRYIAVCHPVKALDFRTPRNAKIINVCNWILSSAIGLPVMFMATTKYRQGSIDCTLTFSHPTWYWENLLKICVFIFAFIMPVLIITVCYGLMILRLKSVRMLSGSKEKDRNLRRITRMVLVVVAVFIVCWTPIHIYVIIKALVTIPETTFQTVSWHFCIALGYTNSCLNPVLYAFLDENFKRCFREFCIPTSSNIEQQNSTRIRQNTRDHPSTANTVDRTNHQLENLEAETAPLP
Description: The PathHunter G protein-coupled receptor β-arrestin-2 assay (DiscoveRx) was performed according to the manufacturer's protocol. Briefly, when β-arrestin-2 translocates to the active receptor, complementary β-galactosidase fragments fused to the receptor and β-arrestin-2 interact to form a functional enzyme, which can be detected by chemiluminescence.
Cells (5,000 per well) were then seeded in black 384-well assay plates with a CP2 reagent (DiscoveRx) and incubated for 24 h before running the assay. After each treatment, cells were incubated at room temperature for 1.5 h, followed by the addition of 8 μl of the PathHunter Detection reagent (DiscoveRx) and incubated for 1 h. Luminescence was detected using a Victor 2 plate reader. Studies were performed on the same day and the same passage of cells was used to ensure accurate comparisons of data.
Opioid receptors have been reported to couple to G protein-independent β-arrestin-2-mediated pathways. […] The potency of the above three molecules in a β-arrestin-2 recruitment assay (PathHunter), which was based on enzyme complementation in Chinese hamster ovary (CHO)-K1 cells expressing human MOR (CHO-K1-MOR), was further examined.

B6 mice [7] = assay: Cardiovascular function test (tail cuff plethysmography); conditions: acute, equi-antinociceptive doses
MOR [8] = molecular target: T2, MOR; assay: cell-based; parameters: expressed in transfected cells; host or cells: CHO-K1/MOR/Ga15 cells; conditions: read-out: FLIPR Ca2+ EC50
Description: In an exemplary in vitro assay for identifying MOR agonists, cells that express a MOR are treated with a test compound in a cellular calcium fluorescent assay and calcium fluorescence intensity is then measured to determine whether the MOR is activated. A test compound is identified as a MOR agonist if the MOR is activated.
EC50 herein refers to the concentration of a compound that induces a response halfway between the baseline and the maximum after a specified exposure time. AUC refers to the area under the response curve, an indication of the compound's capability of activating a MOR.
One day before the assay, CORNING® black with clear flat bottom 96-well assay plates were coated with a 0.1 mg/mL Poly-L-Lysine solution. CHO-K1/MOR/Ga15 cells were suspended in the F12 medium and plated at a density of about 8×10^4 cells/well in […] medium. Cells were incubated in a humidified atmosphere of 10% CO2 at 37° C. overnight so as to reach an 80-90% confluent cell monolayer before the assay. On the day of the assay, 150 μL medium/well was removed from plate. […] Compounds and other reagents were dissolved in the assay buffer. […] The [Ca^2+]i fluorescence was measured up to 90 s after agonist injection.

mice = assay: Conditioned place preference (CPP) test, reinstatement of morphine CPP; conditions: challenge on reinstatement day (Day 21)

T1 sequence (P35372 whole entry): as the sequence (P35372 whole entry, the tested form may be a part) above

SMILES: CN1CCc2ccccc2C1CNC(=O)c1ccc(Cl)c(Cl)c1 (centres unmarked) [Compound 67, 3,4-Dichloro-N-[(2-methyl-1,2,3,4-tetrahydro-1-isoquinolinyl)methyl]benzamide]
- EC50 (myc-tagged human MOR): 59.9 nM
- Emax of membrane potential hyperpolarization (myc-tagged human MOR): slightly higher than that of morphine
- antinociception of mechanical pain (B6 mice [1]): higher antinociceptive effect with mechanical stimuli than morphine
- antinociceptive effect in oxaliplatin-induced sensory allodynia [2]: comparable to that of morphine
- antinociceptive effect after twice daily injection ([3]; 30 min on PID 21 and PID 23): more than that of morphine
- withdrawal threshold ([3]; PID19, 30 min after treatment, equi-antinociceptive doses): greater than that of morphine
- licking and shaking frequency [4]: less than that of morphine
- respiratory frequency (B6 mice [5]): kept recovery of respiratory frequency after 30 min
- EC50 (MOR [6]): 1900 nM
- Emax of β-arrestin recruitment relative to morphine (MOR [6]): 3 fold
- β-arrestin recruitment, comparison (MOR [6]): more β-arrestin recruitment than that in morphine but induced less β-arrestin recruitment than Met-5
- cardiovascular function (B6 mice [7]): minimal effect on cardiovascular function
- EC50 (MOR [8]): 10 nM
- reinstatement of morphine CPP (mice): not Compound 67
